Laboratory results as given in US20100120690A1, “Polypeptides Having Antimicrobial Activity and Polynucleotides Encoding Same” (Novozymes Adenium Biotech A/S, priority 2005, published 2010).

Key:
Format in all cases: cell-based
[1] = test system: Staphylococcus aureus, MRSA ST5 (2001); assay: MIC, NCCLS/CLSI guidelines (Example 5), strain D; conditions: average of two independent experiments
In short: (§1)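 Relative MIC category versus wild-type plectasin (0 >100%, 1 80-100%, 2 50-80%, 3 <50%), mean of two experiments. Determined per CLSI broth guidelines with expressed, purified peptides.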

[2] = test system: Staphylococcus aureus, ATCC 29737; assay: MIC, NCCLS/CLSI guidelines (Example 5), strain C; conditions: average of two independent experiments
In short: (§2)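 Expressed, purified plectasin wild-type and variant peptides were tested for minimal inhibitory concentration under NCCLS/CLSI guidelines. Values are the mean of two independent experiments, scored relative to wild-type plectasin MIC: 0 >100%, 1 80-100%, 2 50-80%, 3 <50%.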

[3] = test system: Staphylococcus aureus, MRSA ST80 (2003); assay: MIC, NCCLS/CLSI guidelines (Example 5), strain E; conditions: average of two independent experiments
In short: as §1

Staphylococcus carnosus = assay: TAPS (Trans Acting Peptide System) assay, radial diffusion read-out; parameters: key: classified as 4>3>2>1; whereas 4 is better than 1; classified as 4>3>2>1; classified as 4>3>2>1; wildtype activity corresponds to 1; conditions: peptide expressed in E. coli
Description: A range of antimicrobial polypeptides, which are variants of SEQ ID NO: 1, were tested in the TAPS assay. TAPS may be used to identify new or improved genes encoding peptides that can kill or inhibit the growth of target cells (see PCT application WO 2004/033715). The TAPS assay, an acronym for Trans Acting Peptide System, is based on having a sensitive host producing a peptide followed by screening for its activity in trans against an indicator strain. The advantage of this system is based on that the antimicrobial peptide is expressed in the Gram-negative bacterium E. coli and its antimicrobial activity can be monitored on different microbes including Gram-negatives, positives or fungi. Additionally, TAPS offers the possibility to produce correctly folded AMPs containing disulfide bonds in the host cells, thereby retaining their antimicrobial activities.
The TAPS approach requires first, that expression of the peptide is under control of an inducible promoter with tight regulation, because the host cells are sensitive to the peptide when producing it. Secondly, the produced peptide has to be released to the media so that it can interact with the target organism.
The TAPS screening can be carried out either in solid or liquid media. On solid media, a plasmid library is initially introduced into E. coli host cells. […] In the next step, the filter containing the colonies is transferred to LB growth medium containing inducer (0.1% arabinose) to permit peptide synthesis. Subsequently, the target strain, for example S. carnosus, is overlaid onto the plate and allowed to grow for 12-16 hours at 37° C. Finally, visual inspection of the host cells capable of reducing the proliferation of the target cells is performed and the nucleotide sequence encoding for the antimicrobial peptide is recovered from the host cells. DNA sequence analysis of the variants is obtained to elucidate the nature of the peptide.
As mentioned above, the TAPS screening can also be performed using liquid medium. This procedure requires the use of robotics to analyze large number of clones. In this system, the host E. coli origami cells are transformed with the plasmid library and plated out on LB medium+0.2% glucose+ampicillin (200 mg/L). Independent colonies are then inoculated into 96 or 384-well plates containing 200 micro-L of TB medium+ampicillin (200 mg/L) and cultured overnight at 37° C. These cultures are then replicated robotically and grown to exponential phase until inducer (0.1% arabinose) is added to trigger peptide synthesis. The next step consists in hydrolyzing the cells such that the peptide is released to the media by hot acid hydrolysis. This treatment consists on adding 1 M sodium Phosphate buffer pH 2.3 to obtain a final pH approximately of 2.3 and incubating the cultures overnight at 80° C. Next day, a 25 micro-L aliquot of the hydrolyzed cultures is used to perform an activity test against the desired target organisms. The activity test performed was a Radial Diffusion Assay (RDA) where an aliquot of the hydrolyzed cultures was added to the agarose media inoculated with the target strain, S. carnosus. […] Measurements of the diameter of the clearing zones were performed to quantify the potency of the antimicrobial activity of the peptides.
The antimicrobial activity (against Staphylococcus carnosus) of the tested plectasin variants, which was measured using the TAPS assay, is shown in table 3. The antimicrobial activity corresponds to the clearing zone size and has been classified as 4>3>2>1; whereas 4 is better than 1, and wildtype activity corresponds to 1.

[4] = test system: Staphylococcus aureus, ATCC 29213; assay: MIC, NCCLS/CLSI guidelines (Example 5), strain A; conditions: average of two independent experiments
In short: as §2

GFGCNGPWDEDDMQCHNHCKSIKGYKGGYCAKGGFVCKCY (listed as Pseudoplectania nigrella) [wildtype, wildtype plectasin, parent antimicrobial polypeptide, reference compound]
MIC, strain D [1]: (15 μg/mL)
Relative MIC, strain D ([1]; relative to wildtype Plectasin): 1 (80-100% of Plectasin wildtype MIC)
MIC, strain C [2]: (4 μg/mL)
Relative MIC, strain C ([2]; relative to wildtype Plectasin): 1 (80-100% of Plectasin wildtype MIC)
MIC, strain E [3]: (22 μg/mL)
Relative MIC, strain E ([3]; relative to wildtype Plectasin): 1 (80-100% of Plectasin wildtype MIC)
Activity (antimicrobial activity, clearing zone size) (Staphylococcus carnosus): 1
MIC, strain A [4]: (8 μg/mL)
Relative MIC, strain A ([4]; relative to wildtype Plectasin): 1 (80-100% of Plectasin wildtype MIC)
